Assay [1] deals with T1, human wild type C-Raf (Homo sapiens, UniProt P04049).
T1 construct: made in house
Kind of assay: Enzymatic assay of C-Raf kinase activity (Raf/MEK1 ATPase, coupled PK/LDH, A340). The note with it: read-out: Enzyme IC50, nM C-Raf. It is filed as biochemical.

The test system of assay [2] is A375 cells. The experiment in a line: A375 cell proliferation assay (CellTiter-Blue/resazurin). Format: cell-based. The note with it: Homo sapiens, A-375, V600E mutation, read-out: Cell Proliferation Inhibition IC50, nM A375. On the technique in general: Alamar Blue is a resazurin reagent that responds to reducing activity.
The subject of assay [3] is Colo205 cells. The experiment in a line: Colo-205 cell proliferation assay (resazurin). Format: cell-based. The note with it: Homo sapiens; Colo-205 cells, V600E mutation; read-out: Cell Proliferation Inhibition IC50, nM Colo-205.
Assay [4] deals with Sk-Mel-2 cells. The experiment in a line: SK-Mel-2 cell proliferation assay (resazurin). Format: cell-based. The settings on record: Homo sapiens, N-Ras mutation B-Raf wild type, read-out: Cell Proliferation Inhibition IC50, nM SK-Mel-2.
Assay [5] deals with A375res cells. The experiment in a line: Proliferation assay in vemurafenib-resistant melanoma cells A375res. The note with it: Homo sapiens, 72 h, read-out: absolute IC50 values.

T1 sequence (P04049 whole entry): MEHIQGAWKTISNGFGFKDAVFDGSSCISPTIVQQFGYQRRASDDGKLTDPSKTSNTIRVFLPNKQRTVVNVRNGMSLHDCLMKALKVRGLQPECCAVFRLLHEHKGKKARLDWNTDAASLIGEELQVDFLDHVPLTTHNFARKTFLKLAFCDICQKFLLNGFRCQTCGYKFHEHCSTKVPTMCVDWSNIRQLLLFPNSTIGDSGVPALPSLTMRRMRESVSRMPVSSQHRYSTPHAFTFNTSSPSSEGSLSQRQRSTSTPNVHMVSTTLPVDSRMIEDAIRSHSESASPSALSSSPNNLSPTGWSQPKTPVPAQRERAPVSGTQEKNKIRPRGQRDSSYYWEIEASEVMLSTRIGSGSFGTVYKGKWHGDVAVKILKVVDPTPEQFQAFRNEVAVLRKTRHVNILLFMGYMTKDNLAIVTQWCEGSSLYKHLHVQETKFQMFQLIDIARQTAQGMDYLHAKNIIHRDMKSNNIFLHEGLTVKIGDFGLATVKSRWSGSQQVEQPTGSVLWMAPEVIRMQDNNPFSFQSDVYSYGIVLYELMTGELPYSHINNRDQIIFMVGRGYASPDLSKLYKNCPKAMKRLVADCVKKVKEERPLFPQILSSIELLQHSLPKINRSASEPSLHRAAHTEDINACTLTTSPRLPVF

`Cc1cc(F)c(NC(=O)NCCC(C)(C)F)cc1-c1cc2cnc(NC3COC3)nc2nc1C` [Example 25, 1-(3-Fluoro-3-methylbutyl)-3-(2-fluoro-4-methyl-5-(7-methyl-2-(oxetan-3-ylamino)pyrido[2,3-d]pyrimidin-6-yl)phenyl)urea]: the IC50 in assay [1] is less than 150 nM; in assay [2] it was less than 100 nM; in assay [3], less than 100 nM; in assay [4] it was 100 to 1000 nM; in assay [5], 0.015 to 1.1 µM.
Regarding `CNc1ncc2cc(-c3cc(NC(=O)NCC(O)C(C)(C)C)c(F)cc3C)c(C)nc2n1` (stereo not shown) [Example 15, 1-[2-Fluoro-4-methyl-5-(7-methyl-2-methylamino-pyrido[2,3-d]pyrimidin-6-yl)phenyl]-3-(2-hydroxy-3,3-dimethyl-butyl)urea], the IC50 in assay [1] is less than 150 nM; in assay [2] it was less than 100 nM; in assay [3], less than 100 nM; in assay [4], 100 to 1000 nM; in assay [5], 0.015 to 1.1 µM.

The values are drawn from US9334267B2, “RAF inhibitor compounds” (Deciphera Pharmaceuticals, LLC, priority 2012, dated 2016).
